The target in one test is T1, Cathepsin D (Mus musculus, UniProt P18242).
T1 construct: azocasein assay pH 5.0
Nature of the test: Mouse hepatic lysosomal cathepsin D activity. It is filed as biochemical. An excerpt:
1. Cf1 male mouse hepatic 10% homogenates in 0.25M sucrose+0.001MEDTA,pH 7.2.
Lysosomal Enzymes - free and total [triton X-100].
(§1) 2. Acid Cathepsin D -azocasein-pH 5.0, hydrolytic azo-peptide produce 366 nm.
Cathepsin azo casein activity -

In a further test the target is T2, 5'-Lipoxygenase (Homo sapiens, UniProt P09917).
T2 construct: human leukocyte tissue culture cells; endogenous in cells; host or cells: Human peripheral leukocytes, RPMI-1788
T2 sequence (P09917 1-674): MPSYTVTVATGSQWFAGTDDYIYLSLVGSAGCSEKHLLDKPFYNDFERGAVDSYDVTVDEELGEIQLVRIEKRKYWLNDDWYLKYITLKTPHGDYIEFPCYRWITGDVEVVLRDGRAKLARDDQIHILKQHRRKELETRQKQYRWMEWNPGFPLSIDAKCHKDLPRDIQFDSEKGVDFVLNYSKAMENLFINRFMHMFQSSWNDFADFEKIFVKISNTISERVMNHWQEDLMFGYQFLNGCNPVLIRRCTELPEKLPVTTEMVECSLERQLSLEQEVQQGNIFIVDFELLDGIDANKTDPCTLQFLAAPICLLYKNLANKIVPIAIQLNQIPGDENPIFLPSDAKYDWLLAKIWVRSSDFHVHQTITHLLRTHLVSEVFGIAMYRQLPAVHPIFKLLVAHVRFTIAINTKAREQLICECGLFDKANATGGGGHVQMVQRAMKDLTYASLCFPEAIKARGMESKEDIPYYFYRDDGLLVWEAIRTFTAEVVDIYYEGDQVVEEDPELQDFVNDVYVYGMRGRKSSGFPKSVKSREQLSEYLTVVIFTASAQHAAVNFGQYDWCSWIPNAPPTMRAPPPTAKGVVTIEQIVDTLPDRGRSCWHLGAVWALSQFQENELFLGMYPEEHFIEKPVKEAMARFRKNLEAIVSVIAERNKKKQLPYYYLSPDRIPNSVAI
In words: Human leukocyte 5'-lipoxygenase. The class given is cell-based.

A further test has as its system Cathepsin. In words: Human leukocyte cathepsin. It is filed as cell-based. The conditions noted are these: Table XIX; read-out: Human Leukocyte IC50 (head gives no enzyme; beside Cathepsin D).
Description: 5. Human peripheral leukocytes, RPMI-1788
as §1

[1] abbreviates: read-out: Mouse Hepatic Cathepsin D IC50; Table XIX.

Like-named read-outs stand apart in the source and are kept apart here.

T1 sequence (P18242 65-410): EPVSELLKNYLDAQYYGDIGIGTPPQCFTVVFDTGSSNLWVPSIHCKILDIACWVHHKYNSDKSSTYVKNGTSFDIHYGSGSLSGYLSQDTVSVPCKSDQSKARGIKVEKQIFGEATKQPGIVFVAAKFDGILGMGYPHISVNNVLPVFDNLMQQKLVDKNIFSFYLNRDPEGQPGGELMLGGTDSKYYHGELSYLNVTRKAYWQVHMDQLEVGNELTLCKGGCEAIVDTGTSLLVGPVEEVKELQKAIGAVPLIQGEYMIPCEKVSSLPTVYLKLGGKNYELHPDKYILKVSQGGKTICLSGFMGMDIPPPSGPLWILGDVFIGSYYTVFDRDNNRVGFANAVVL

For the molecule `CC(C)[Si](OC[C@H]1O[C@@H](n2cnc3c(=O)[nH]cnc32)C[C@@H]1O[Si](C(C)C)(C(C)C)C(C)C)(C(C)C)C(C)C` [Compound 29], the IC50 at Cathepsin D (setting [1]) was 79.6 µM; against 5'-Lipoxygenase, 8.85 µM; in the test with Cathepsin, 31.8 µM.
For the molecule `CC(C)[Si](OC[C@H]1O[C@@H](n2cnc3c(N)ncnc32)C[C@@H]1O[Si](C(C)C)(C(C)C)C(C)C)(C(C)C)C(C)C` [Compound 35], the IC50 at Cathepsin D (setting [1]) is 58.1 µM; at 5'-Lipoxygenase it was 10.1 µM; in the test on Cathepsin, 33.4 µM.
Turning to `CC(C)[Si](OC[C@H]1O[C@@H](n2ccc(N)nc2=O)C[C@@H]1O[Si](C(C)C)(C(C)C)C(C)C)(C(C)C)C(C)C` [Compound 38], the IC50 at Cathepsin D (setting [1]) turned out to be 59.7 µM; against 5'-Lipoxygenase, 7.72 µM; in the test with Cathepsin, 13.9 µM.
For the molecule `N#C[BH2-][n+]1c(N)ccn([C@H]2C[C@H](O)[C@@H](CO)O2)c1=O` [Compound 39, 2'-Deoxycytidine-N3-cyanoborane], the IC50 at Cathepsin D (Table XIX; read-out: Mouse Hepatic Cathepsin D IC50) worked out at 26 µM; on 5'-Lipoxygenase (Table XIX, read-out: Leukocyte 5' lipoxygenase IC50) it was 12.8 µM; in the test on Cathepsin, 8.72 µM.
In the case of `CC(C)[Si](OC[C@H]1O[C@@H](n2ccc(N)[n+]([BH2-]C#N)c2=O)C[C@@H]1O[Si](C(C)C)(C(C)C)C(C)C)(C(C)C)C(C)C` [Compound 40], the IC50 at Cathepsin D (setting [1]) turned out to be 27.2 µM; on 5'-Lipoxygenase, 3.88 µM; in the test on Cathepsin it was 6.12 µM.
Take `CC(C)[Si](OC[C@@H]1CC[C@H](n2ccc(N)[n+]([BH2-]C#N)c2=O)O1)(C(C)C)C(C)C` [Compound 42]: the IC50 is 30.6 µM on Cathepsin D (setting [1]), 6.64 µM against 5'-Lipoxygenase and 7.31 µM in the test with Cathepsin.

The values above are taken from US5312816A, “Method of combatting osteoporosis in mammalian subjects, utilizing organic boron compounds” (priority 1993, dated 1994).
